Data on 2 compounds can be found in patent publication US20220295793A1 (priority 2019, published 2022).

Read-outs that look alike come from different tables or passages of the source.

The test system of one test is Phytophthora infestans. In kind it is in vivo. The settings on record: tomatoes, preventive spray, evaluated 3 days after inoculation.
Another test has as its system cucumber downy mildew. The note with it: R. Zhang, J. Pesticide Sci., vol. 39, no. 1, 2014, pages 43-47; cited from earlier work.

For the compound `COc1c(F)c(F)c(C(=O)NCc2ncc(C(F)(F)F)cc2Cl)c(F)c1F` [(B) fluopimomide, N-{[3-chloro-5-(trifluoromethyl)-2-pyridyl]methyl}-2,3,5,6-tetrafluoro-4-methoxybenzamide], the “Efficacy in % found” value in the test on Phytophthora infestans (2.5 ppm a.i.), in the test on Phytophthora infestans (5 ppm a.i.) and with Phytophthora infestans (10 ppm a.i.) was 0% in each case. Further, the “controlling cucumber downy mildew” value with cucumber downy mildew is reported as “highly effective”.

Take `CS(=O)(=O)Oc1cccc(Cl)c1C1CC(c2csc(C3CCN(C(=O)Cn4nc(C(F)F)cc4C(F)F)CC3)n2)=NO1` (racemic) [(A) fluoxapiprolin, 2-{(5RS)-3-[2-(1-{[3,5-bis(difluoromethyl)-1H-pyrazol-1-yl]acetyl}-4-piperidyl)thiazol-4-yl]-4,5-dihydroisoxazol-5-yl}-3-chlorophenyl methanesulfonate]: the “Efficacy in % found” value stood at 54% with Phytophthora infestans (0.02 ppm a.i.) and 79% with Phytophthora infestans (0.04 ppm a.i.).
